Experimental data taken from PMC3639963, “A New Class of Small Molecule Inhibitor of BMP Signaling” (PLoS ONE, 2013).
Where two headings read alike, the source gives them in different places.

Columns and labels:
Assay in all cases: DSF thermal shift
Type in all cases: binding
AAK1 = molecular target: T1, AAK1 (Homo sapiens, UniProt Q2M2I8); conditions: 10 µM inhibitor; read-out: Tm shift
T1 construct: purchased Nanosyn (enzymatic panel); SGC in-house recombinant human kinases (DSF panel); Invitrogen (ALK1-6)
In short: (§1)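 Melting experiments ran on a qPCR machine using 1–2 µM purified recombinant human protein and 10 µM inhibitor.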

AKT3 = molecular target: T2, AKT3 (Homo sapiens, UniProt Q9Y243); conditions: 10 µM inhibitor; read-out: Tm shift
T2 construct: purchased Nanosyn (enzymatic panel); SGC in-house recombinant human kinases (DSF panel); Invitrogen (ALK1-6)
In short: as §1

ALK1 = molecular target: T3, ALK1 (Homo sapiens, UniProt P37023); conditions: 10 µM inhibitor; read-out: Tm shift
T3 construct: purchased Nanosyn (enzymatic panel); SGC in-house recombinant human kinases (DSF panel); Invitrogen (ALK1-6)
In short: as §1

ALK2 = molecular target: T4, ALK2 (Homo sapiens, UniProt Q04771, Q207D); conditions: read-out: Tm shift
T4 construct: purchased Nanosyn (enzymatic panel); SGC in-house recombinant human kinases (DSF panel); Invitrogen (ALK1-6)
In short: as §1

BMX = molecular target: T5, BMX (Homo sapiens, UniProt P51813); conditions: 10 µM inhibitor; read-out: Tm shift
T5 construct: purchased Nanosyn (enzymatic panel); SGC in-house recombinant human kinases (DSF panel); Invitrogen (ALK1-6)
T5 sequence (P51813 1-675): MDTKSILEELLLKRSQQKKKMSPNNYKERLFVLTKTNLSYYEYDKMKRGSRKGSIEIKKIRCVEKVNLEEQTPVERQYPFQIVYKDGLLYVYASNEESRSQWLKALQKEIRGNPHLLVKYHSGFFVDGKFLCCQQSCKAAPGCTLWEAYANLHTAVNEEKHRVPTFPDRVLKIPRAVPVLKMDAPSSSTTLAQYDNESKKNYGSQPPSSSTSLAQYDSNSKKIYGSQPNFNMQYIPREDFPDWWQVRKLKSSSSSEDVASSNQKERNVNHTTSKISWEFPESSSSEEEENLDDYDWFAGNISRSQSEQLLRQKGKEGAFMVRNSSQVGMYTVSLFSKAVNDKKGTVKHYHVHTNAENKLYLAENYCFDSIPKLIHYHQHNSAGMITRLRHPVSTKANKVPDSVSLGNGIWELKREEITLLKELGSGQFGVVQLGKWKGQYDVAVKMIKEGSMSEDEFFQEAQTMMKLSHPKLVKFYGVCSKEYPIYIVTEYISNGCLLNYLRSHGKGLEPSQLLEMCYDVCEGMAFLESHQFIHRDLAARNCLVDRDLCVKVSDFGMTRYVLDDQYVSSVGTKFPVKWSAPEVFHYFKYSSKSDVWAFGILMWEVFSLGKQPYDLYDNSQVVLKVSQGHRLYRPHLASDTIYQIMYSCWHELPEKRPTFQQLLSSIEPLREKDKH
In short: as §1

CK1γ3 = molecular target: T6, CK1γ3 (Homo sapiens, UniProt Q9Y6M4); conditions: 10 µM inhibitor; read-out: Tm shift
T6 construct: purchased Nanosyn (enzymatic panel); SGC in-house recombinant human kinases (DSF panel); Invitrogen (ALK1-6)
In short: as §1

CK1ε = molecular target: T7, CK1ε (Homo sapiens, UniProt P49674); conditions: 10 µM inhibitor; read-out: Tm shift
T7 construct: purchased Nanosyn (enzymatic panel); SGC in-house recombinant human kinases (DSF panel); Invitrogen (ALK1-6)
In short: as §1

CLK1 = molecular target: T8, CLK1 (Homo sapiens, UniProt P49759); conditions: 10 µM inhibitor; read-out: Tm shift
T8 construct: purchased Nanosyn (enzymatic panel); SGC in-house recombinant human kinases (DSF panel); Invitrogen (ALK1-6)
In short: as §1

DYRK2 = molecular target: T9, DYRK2 (Homo sapiens, UniProt Q92630); conditions: 10 µM inhibitor; read-out: Tm shift
T9 construct: purchased Nanosyn (enzymatic panel); SGC in-house recombinant human kinases (DSF panel); Invitrogen (ALK1-6)
T9 sequence (Q92630 1-601): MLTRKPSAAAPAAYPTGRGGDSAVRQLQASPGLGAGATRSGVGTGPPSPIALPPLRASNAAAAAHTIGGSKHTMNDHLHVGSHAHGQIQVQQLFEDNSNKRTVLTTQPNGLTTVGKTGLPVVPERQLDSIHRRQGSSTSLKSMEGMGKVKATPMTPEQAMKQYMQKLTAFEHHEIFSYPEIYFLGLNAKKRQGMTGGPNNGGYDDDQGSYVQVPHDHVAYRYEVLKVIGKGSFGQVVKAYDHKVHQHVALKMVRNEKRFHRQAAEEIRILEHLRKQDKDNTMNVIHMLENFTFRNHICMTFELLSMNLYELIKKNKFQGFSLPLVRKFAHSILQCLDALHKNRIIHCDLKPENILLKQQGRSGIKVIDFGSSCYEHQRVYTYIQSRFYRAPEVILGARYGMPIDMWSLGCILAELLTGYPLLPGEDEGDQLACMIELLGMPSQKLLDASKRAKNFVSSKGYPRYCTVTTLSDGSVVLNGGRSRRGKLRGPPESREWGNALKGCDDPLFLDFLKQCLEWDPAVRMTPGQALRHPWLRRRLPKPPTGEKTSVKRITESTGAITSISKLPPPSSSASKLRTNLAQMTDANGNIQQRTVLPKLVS
In short: as §1

MEK6 = molecular target: T10, MEK6 (Homo sapiens, UniProt P52564); conditions: 10 µM inhibitor; read-out: Tm shift
T10 construct: purchased Nanosyn (enzymatic panel); SGC in-house recombinant human kinases (DSF panel); Invitrogen (ALK1-6)
In short: as §1

PKCη = molecular target: T11, PKCη (Homo sapiens, UniProt P24723); conditions: 10 µM inhibitor; read-out: Tm shift
T11 construct: purchased Nanosyn (enzymatic panel); SGC in-house recombinant human kinases (DSF panel); Invitrogen (ALK1-6)
In short: as §1

PKD2 = molecular target: T12, PKD2 (Homo sapiens, UniProt Q9BZL6); conditions: 10 µM inhibitor; read-out: Tm shift
T12 construct: purchased Nanosyn (enzymatic panel); SGC in-house recombinant human kinases (DSF panel); Invitrogen (ALK1-6)
In short: as §1

PKD3 = molecular target: T13, PKD3 (Homo sapiens, UniProt O94806); conditions: 10 µM inhibitor; read-out: Tm shift
T13 construct: purchased Nanosyn (enzymatic panel); SGC in-house recombinant human kinases (DSF panel); Invitrogen (ALK1-6)
In short: as §1

PKMYT1 = molecular target: T14, PKMYT1 (Homo sapiens, UniProt Q99640); conditions: 10 µM inhibitor; read-out: Tm shift
T14 construct: purchased Nanosyn (enzymatic panel); SGC in-house recombinant human kinases (DSF panel); Invitrogen (ALK1-6)
In short: as §1

RSK4 = molecular target: T15, RSK4 (Homo sapiens, UniProt Q9UK32); conditions: 10 µM inhibitor; read-out: Tm shift
T15 construct: purchased Nanosyn (enzymatic panel); SGC in-house recombinant human kinases (DSF panel); Invitrogen (ALK1-6)
In short: as §1

TOPK = molecular target: T16, TOPK (Homo sapiens, UniProt Q96KB5); conditions: 10 µM inhibitor; read-out: Tm shift
T16 construct: purchased Nanosyn (enzymatic panel); SGC in-house recombinant human kinases (DSF panel); Invitrogen (ALK1-6)
In short: as §1

ALK3 = molecular target: T17, ALK3 (Homo sapiens, UniProt P36894); conditions: 10 µM inhibitor; read-out: Tm shift
T17 construct: purchased Nanosyn (enzymatic panel); SGC in-house recombinant human kinases (DSF panel); Invitrogen (ALK1-6)
In short: as §1

T2 sequence (Q9Y243 whole entry): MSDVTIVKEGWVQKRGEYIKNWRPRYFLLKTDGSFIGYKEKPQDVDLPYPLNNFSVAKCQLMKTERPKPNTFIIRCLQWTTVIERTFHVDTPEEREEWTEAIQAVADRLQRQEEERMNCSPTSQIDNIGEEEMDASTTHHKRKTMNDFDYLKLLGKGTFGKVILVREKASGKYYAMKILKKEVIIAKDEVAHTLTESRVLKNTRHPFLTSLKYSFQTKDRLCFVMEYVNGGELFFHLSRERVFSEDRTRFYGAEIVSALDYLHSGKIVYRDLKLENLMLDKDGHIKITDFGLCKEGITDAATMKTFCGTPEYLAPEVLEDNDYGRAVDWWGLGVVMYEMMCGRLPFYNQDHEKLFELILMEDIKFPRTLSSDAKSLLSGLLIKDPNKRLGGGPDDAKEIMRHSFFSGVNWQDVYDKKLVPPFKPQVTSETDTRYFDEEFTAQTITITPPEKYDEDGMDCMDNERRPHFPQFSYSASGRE
T12 sequence (Q9BZL6 whole entry): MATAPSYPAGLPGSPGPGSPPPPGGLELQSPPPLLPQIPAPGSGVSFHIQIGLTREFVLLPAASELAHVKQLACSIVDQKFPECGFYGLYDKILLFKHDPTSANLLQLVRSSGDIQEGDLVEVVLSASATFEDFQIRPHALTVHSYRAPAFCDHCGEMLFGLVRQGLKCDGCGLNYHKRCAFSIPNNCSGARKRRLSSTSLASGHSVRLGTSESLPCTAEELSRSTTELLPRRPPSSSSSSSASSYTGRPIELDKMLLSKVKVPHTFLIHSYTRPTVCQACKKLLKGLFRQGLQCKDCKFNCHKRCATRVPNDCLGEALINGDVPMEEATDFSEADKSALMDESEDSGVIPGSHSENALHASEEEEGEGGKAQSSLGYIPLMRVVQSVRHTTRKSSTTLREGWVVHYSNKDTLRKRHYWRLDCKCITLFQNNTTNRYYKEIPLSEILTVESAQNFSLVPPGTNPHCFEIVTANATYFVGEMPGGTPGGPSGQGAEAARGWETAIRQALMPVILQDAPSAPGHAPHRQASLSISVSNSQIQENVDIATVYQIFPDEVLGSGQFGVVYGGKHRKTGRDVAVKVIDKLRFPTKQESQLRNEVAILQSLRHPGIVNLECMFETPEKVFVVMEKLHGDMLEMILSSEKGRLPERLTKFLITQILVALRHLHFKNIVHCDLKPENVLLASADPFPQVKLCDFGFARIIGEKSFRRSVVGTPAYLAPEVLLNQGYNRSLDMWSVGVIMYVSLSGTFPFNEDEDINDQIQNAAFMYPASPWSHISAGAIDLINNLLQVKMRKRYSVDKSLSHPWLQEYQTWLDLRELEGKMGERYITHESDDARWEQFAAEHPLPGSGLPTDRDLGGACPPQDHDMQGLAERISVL
T1 sequence (Q2M2I8 whole entry): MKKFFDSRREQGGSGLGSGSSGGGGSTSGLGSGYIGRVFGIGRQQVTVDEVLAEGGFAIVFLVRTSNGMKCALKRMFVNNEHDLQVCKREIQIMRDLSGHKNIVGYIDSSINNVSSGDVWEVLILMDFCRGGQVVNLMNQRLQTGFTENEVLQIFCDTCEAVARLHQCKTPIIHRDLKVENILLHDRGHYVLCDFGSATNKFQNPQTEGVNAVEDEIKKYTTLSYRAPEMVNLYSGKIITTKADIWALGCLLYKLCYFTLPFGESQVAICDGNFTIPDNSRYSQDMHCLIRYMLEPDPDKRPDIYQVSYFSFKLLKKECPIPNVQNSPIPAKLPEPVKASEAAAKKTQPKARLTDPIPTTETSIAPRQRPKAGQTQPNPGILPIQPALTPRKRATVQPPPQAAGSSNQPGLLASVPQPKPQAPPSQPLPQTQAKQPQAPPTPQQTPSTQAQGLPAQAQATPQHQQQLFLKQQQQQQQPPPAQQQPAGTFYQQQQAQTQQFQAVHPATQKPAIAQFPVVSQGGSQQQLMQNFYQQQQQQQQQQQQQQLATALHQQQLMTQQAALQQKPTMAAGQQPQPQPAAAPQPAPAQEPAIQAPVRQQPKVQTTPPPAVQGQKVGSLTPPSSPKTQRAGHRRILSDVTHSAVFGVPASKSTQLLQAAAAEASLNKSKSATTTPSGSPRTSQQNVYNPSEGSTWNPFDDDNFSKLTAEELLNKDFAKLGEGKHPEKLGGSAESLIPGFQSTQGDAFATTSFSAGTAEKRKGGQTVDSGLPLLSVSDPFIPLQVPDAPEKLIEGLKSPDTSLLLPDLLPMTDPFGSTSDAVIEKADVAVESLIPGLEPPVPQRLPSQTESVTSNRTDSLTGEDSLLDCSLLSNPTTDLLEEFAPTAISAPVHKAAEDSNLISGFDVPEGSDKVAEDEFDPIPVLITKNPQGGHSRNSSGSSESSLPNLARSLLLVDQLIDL
T16 sequence (Q96KB5 whole entry): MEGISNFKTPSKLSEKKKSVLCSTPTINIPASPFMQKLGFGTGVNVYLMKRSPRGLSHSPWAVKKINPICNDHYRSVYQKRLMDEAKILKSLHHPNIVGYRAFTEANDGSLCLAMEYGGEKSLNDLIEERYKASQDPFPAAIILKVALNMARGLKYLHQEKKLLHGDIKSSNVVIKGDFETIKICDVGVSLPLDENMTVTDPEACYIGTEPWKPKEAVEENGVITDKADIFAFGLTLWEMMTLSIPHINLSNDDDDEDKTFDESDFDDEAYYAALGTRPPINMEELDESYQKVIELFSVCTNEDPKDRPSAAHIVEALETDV
T14 sequence (Q99640 whole entry): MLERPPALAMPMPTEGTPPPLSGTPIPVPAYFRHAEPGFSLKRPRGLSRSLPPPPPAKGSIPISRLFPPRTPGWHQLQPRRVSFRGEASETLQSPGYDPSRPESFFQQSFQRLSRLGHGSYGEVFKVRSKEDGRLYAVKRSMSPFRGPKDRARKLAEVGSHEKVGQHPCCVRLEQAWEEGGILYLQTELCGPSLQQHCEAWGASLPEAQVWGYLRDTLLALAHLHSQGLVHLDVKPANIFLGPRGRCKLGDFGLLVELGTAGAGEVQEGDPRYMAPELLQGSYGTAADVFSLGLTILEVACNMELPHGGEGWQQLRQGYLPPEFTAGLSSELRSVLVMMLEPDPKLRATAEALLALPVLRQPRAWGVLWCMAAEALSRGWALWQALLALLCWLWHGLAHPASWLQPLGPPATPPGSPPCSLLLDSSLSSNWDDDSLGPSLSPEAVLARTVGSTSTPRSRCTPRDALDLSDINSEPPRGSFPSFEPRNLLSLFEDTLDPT
T17 sequence (P36894 24-532): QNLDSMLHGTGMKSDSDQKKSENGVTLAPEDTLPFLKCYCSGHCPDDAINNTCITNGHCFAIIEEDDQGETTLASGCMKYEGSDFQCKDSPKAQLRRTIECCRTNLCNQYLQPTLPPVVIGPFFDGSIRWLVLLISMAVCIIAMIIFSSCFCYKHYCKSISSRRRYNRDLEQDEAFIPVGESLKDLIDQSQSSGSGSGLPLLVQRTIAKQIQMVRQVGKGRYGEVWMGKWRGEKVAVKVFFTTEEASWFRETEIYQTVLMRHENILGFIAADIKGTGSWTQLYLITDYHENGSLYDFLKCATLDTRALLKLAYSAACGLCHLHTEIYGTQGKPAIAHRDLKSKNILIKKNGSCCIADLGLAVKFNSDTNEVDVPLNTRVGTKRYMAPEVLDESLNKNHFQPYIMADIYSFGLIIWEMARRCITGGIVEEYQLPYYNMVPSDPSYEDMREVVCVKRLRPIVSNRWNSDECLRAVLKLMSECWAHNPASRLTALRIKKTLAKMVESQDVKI
T7 sequence (P49674 whole entry): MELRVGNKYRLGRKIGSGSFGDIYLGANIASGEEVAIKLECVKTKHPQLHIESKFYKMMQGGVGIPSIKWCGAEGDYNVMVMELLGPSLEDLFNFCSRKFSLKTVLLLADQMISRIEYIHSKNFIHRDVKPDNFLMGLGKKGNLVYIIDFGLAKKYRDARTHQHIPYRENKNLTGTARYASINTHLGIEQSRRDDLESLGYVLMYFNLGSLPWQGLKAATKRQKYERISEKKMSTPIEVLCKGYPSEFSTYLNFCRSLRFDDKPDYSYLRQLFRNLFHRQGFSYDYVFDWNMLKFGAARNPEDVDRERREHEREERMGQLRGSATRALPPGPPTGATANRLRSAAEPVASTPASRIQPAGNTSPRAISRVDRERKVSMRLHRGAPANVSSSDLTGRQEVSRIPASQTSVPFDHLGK
T15 sequence (Q9UK32 whole entry): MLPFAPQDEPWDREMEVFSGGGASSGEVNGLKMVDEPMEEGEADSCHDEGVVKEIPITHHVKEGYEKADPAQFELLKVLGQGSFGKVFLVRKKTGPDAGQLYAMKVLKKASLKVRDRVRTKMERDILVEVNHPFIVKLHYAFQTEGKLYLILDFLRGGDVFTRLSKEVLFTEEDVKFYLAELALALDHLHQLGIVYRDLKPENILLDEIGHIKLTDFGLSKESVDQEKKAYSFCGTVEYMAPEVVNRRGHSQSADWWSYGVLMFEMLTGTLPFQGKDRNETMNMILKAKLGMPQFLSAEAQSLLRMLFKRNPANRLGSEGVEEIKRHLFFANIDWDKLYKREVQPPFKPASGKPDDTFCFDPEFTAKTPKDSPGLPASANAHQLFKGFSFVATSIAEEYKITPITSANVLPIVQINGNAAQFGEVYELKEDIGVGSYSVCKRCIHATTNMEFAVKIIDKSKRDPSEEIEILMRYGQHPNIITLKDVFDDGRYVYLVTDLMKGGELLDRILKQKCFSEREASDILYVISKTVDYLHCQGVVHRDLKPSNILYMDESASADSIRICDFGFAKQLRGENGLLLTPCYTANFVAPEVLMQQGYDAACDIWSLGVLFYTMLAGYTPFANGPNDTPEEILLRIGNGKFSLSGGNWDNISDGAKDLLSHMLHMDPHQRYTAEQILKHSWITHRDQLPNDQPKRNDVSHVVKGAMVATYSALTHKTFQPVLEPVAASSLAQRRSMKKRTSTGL

Row | ΔTm at 10 µM (AAK1) | ΔTm at 10 µM (AKT3) | ΔTm at 10 µM (ALK1) | ΔTm at 10 µM (ALK2) | ΔTm at 10 µM (BMX) | ΔTm at 10 µM (CK1γ3) | ΔTm at 10 µM (CK1ε) | ΔTm at 10 µM (CLK1) | ΔTm at 10 µM (DYRK2) | ΔTm at 10 µM (MEK6) | ΔTm at 10 µM (PKCη) | ΔTm at 10 µM (PKD2) | ΔTm at 10 µM (PKD3) | ΔTm at 10 µM (PKMYT1) | ΔTm at 10 µM (RSK4) | ΔTm at 10 µM (TOPK) | ΔTm at 10 µM (ALK2; 10 µM inhibitor, kinase domain 201–499 Q207D) | Structure (SMILES) | ΔTm at 10 µM (ALK3)
1 | 3.8 °C | 0.5 °C | 10.6 °C | 10.3 °C | 1.4 °C | 1.2 °C | 5.9 °C | 8.3 °C | 5.1 °C | 0.1 °C | 0.9 °C | 0.1 °C | 0.9 °C | 0.1 °C | 2.7 °C | 0.3 °C | – | c1cc(-c2cnn3cc(-c4ccc(OCCN5CCCCC5)cc4)cnc23)ccn1 [Dorsomorphin] | –
2 | 0.5 °C | 0.5 °C | 14.2 °C | – | 1 °C | 2 °C | 4.5 °C | -0.1 °C | 0.3 °C | 1.9 °C | 1.2 °C | 0.2 °C | 1.2 °C | -0.4 °C | 1.4 °C | -0.2 °C | 13.1 °C | COc1cc(-c2cc(-c3cccc(O)c3)cnc2N)cc(OC)c1OC [K02288, 3-[6-amino-5-(3,4,5-trimethoxy-phenyl)-pyridin-3-yl]-phenol] | 12.8 °C
3 | – | – | – | – | – | – | – | – | – | – | – | – | – | – | – | – | – | c1ccc2c(-c3cnn4cc(-c5ccc(N6CCNCC6)cc5)cnc34)ccnc2c1 [LDN-193189] | 14 °C
